Results from the supplement of paper PMC13380429.

What was measured:
Conditions in all cases: 72 h
Caco-2 [1] = assay: relative viability EC50 (midpoint between 100% and the lowest measured viability); higher = less toxic
Vero E6 [2] = assay: as above
Calu-3 [3] = assay: as above
HepG2 [4] = assay: as above
Caco-2 [5] = assay: drug sensitivity score (DSS) for viability; higher = more toxic; extreme values may be limits of the assay
Vero E6 [6] = assay: as above
Calu-3 [7] = assay: as above
HepG2 [8] = assay: as above
Caco-2 [9] = assay: cell viability relative to DMSO; higher = less toxic
Vero E6 [10] = assay: as above
Calu-3 [11] = assay: as above
HepG2 [12] = assay: as above
U2OS [13] = assay: drug sensitivity score (DSS) for viability; higher = more toxic; extreme values may be limits of the assay
U2OS [14] = assay: cell viability relative to DMSO; higher = less toxic

Row | SMILES | relative viability EC50 (Caco-2 [1]) | relative viability EC50 (Vero E6 [2]) | relative viability EC50 (Calu-3 [3]) | relative viability EC50 (HepG2 [4]) | drug sensitivity score (Caco-2 [5]) | drug sensitivity score (Vero E6 [6]) | drug sensitivity score (Calu-3 [7]) | drug sensitivity score (HepG2 [8]) | cell viability (Caco-2 [9]; 1 nM) | cell viability (Caco-2 [9]; 10 nM) | cell viability (Caco-2 [9]; 100 nM) | cell viability (Caco-2 [9]; 1000 nM) | cell viability (Caco-2 [9]; 10000 nM) | cell viability (Vero E6 [10]; 1 nM) | cell viability (Vero E6 [10]; 10 nM) | cell viability (Vero E6 [10]; 100 nM) | cell viability (Vero E6 [10]; 1000 nM) | cell viability (Vero E6 [10]; 10000 nM) | cell viability (Calu-3 [11]; 1 nM) | cell viability (Calu-3 [11]; 10 nM) | cell viability (Calu-3 [11]; 100 nM) | cell viability (Calu-3 [11]; 1000 nM) | cell viability (Calu-3 [11]; 10000 nM) | cell viability (HepG2 [12]; 1 nM) | cell viability (HepG2 [12]; 10 nM) | cell viability (HepG2 [12]; 100 nM) | cell viability (HepG2 [12]; 1000 nM) | cell viability (HepG2 [12]; 10000 nM) | drug sensitivity score (U2OS [13]) | cell viability (U2OS [14]; 1 nM) | cell viability (U2OS [14]; 10 nM) | cell viability (U2OS [14]; 100 nM) | cell viability (U2OS [14]; 1000 nM) | cell viability (U2OS [14]; 10000 nM)
1 | CC(C)c1nnc(-c2ccc(-c3ccccc3)nc2)n1-c1cccc2nonc12 [ASP-2535] | > 10 µM | > 10 µM | > 10 µM | > 10 µM | 0 | 0 | 0 | 0 | 104% | 99% | 96.4% | 95.5% | 96.2% | 98.8% | 102% | 97.8% | 102% | 92.9% | 103% | 92.2% | 103% | 93.3% | 103% | 104% | 106% | 107% | 107% | 88.7% | – | – | – | – | – | –
2 | CC(=O)N1CCN(CCOc2ccc(C3CCN(C4=Nn5c(nnc5C(F)(F)F)CC4)CC3)cc2)CC1 [AZD3514] | > 10 µM | – | > 10 µM | 1.97 µM | 1.1 | 3.4 | 0 | 4.5 | 90.2% | 99.3% | 93.7% | 98.3% | 75.9% | 104% | 98.3% | 92.2% | 90.7% | 59.1% | 98.2% | 96.1% | 89.4% | 107% | 91% | 88.9% | 95.9% | 82.4% | 91.4% | 43.2% | 2.1 | 99.8% | 94% | 99.4% | 94.9% | 69.9%
3 | Cc1nc(C)c(-c2ccc(C3CCC(CC(=O)O)CC3)cc2)nc1C(N)=O (stereo unspecified) [AZD7687] | > 10 µM | > 10 µM | > 10 µM | > 10 µM | 0.1 | 0 | 0 | 0 | 116% | 99.6% | 97.7% | 102% | 86.2% | 103% | 100% | 97.3% | 99.9% | 98.5% | 104% | 104% | 98.2% | 96.7% | 105% | 105% | 104% | 109% | 102% | 92.1% | – | – | – | – | – | –
4 | Cc1cc2sc(NC(=O)Cc3ccccc3)nc2cc1Cl [LH846] | > 10 µM | > 10 µM | > 10 µM | > 10 µM | 0 | 0 | 0 | 0 | 95.8% | 93.3% | 101% | 110% | 101% | 96.5% | 99.2% | 98% | 93.5% | 107% | 115% | 105% | 110% | 100% | 92.7% | 98.7% | 119% | 103% | 102% | 108% | – | – | – | – | – | –
5 | CC(=O)c1cc([N+](=O)[O-])c(Sc2cccc(Cl)c2Cl)s1 [P5091] | – | > 10 µM | > 10 µM | > 10 µM | 4.5 | 0 | 0 | 0 | 100% | 90% | 98.8% | 87.2% | 52.1% | 99.4% | 97.5% | 97.2% | 99.7% | 90.4% | 110% | 93.3% | 93.5% | 96.9% | 106% | 95.7% | 97.9% | 93.3% | 105% | 93.7% | 2.4 | 95.9% | 97.3% | 97.9% | 96.9% | 60.4%
6 | CC(=O)OCC(=O)[C@@]1(O)CC[C@H]2[C@@H]3CCC4=CC(=O)C=C[C@]4(C)[C@@]3(Cl)[C@@H](Cl)C[C@@]21C [dichlorisone-acetate] | > 10 µM | > 10 µM | > 10 µM | > 10 µM | 0 | 0 | 0 | 0 | 105% | 103% | 99.7% | 105% | 110% | 105% | 102% | 102% | 98.7% | 105% | 98.9% | 107% | 100% | 89.2% | 102% | 96.4% | 94.5% | 99% | 99.3% | 92.4% | – | – | – | – | – | –
7 | O=C(Cc1ccc(-c2ccccc2)cc1)Nc1ccccn1 [difenpiramide] | > 10 µM | > 10 µM | > 10 µM | 3.89 µM | 0.2 | 0 | 0 | 2.4 | 98.4% | 107% | 100% | 107% | 82.9% | 106% | 111% | 104% | 103% | 98.5% | 107% | 99.3% | 96.9% | 96.4% | 102% | 117% | 118% | 109% | 110% | 43.6% | – | – | – | – | – | –
